Legend:
[1] = biological target: T1, CYP1A2 (Homo sapiens, UniProt P05177); experiment: Inhibition of CYP1A2 (unknown origin) at 10 uM relative to control; format: ADME
T1 sequence (P05177 whole entry): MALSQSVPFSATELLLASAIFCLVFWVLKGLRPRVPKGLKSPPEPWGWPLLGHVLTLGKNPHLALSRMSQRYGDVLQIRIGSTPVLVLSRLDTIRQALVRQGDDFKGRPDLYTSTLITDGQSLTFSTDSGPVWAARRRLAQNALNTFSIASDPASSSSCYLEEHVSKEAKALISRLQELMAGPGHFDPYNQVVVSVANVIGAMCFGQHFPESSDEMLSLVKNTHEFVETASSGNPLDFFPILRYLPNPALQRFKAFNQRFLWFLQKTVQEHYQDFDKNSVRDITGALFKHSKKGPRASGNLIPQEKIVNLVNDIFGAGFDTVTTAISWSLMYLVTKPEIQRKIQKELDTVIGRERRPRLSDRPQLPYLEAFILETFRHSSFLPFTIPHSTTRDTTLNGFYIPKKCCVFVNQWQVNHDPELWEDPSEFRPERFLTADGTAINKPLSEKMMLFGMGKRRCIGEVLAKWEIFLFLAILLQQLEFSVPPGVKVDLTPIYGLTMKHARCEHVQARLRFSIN

[2] = biological target: CYP2C19 (Homo sapiens, UniProt P33261); experiment: Inhibition of CYP2C19 (unknown origin) at 10 uM relative to control; format: ADME
Chain of CYP2C19 (P33261 whole entry): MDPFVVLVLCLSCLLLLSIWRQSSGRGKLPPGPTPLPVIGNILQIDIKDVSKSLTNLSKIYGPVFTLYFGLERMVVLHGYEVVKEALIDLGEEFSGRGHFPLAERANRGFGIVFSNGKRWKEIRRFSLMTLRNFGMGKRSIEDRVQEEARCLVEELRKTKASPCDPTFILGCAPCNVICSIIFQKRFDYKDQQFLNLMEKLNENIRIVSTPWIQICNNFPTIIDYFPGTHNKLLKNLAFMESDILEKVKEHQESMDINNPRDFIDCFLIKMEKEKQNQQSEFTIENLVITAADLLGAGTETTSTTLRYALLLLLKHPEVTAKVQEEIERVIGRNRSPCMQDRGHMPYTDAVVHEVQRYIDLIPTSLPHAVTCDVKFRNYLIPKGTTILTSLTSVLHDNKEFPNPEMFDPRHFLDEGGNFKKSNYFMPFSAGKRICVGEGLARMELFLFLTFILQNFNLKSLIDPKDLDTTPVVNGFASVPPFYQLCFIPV

Question: How did the inhibition at 10 µM [1] turn out when `CSc1nc(N2C[C@@H]3[C@H](C2)[C@H]3C(=O)O)ccc1C(=O)NC12CC3CC(CC(C3)C1)C2` was run?
Answer: Its inhibition at 10 µM is under 25%.

Question: What about the inhibition at 10 µM [2] of the same compound?
Answer: Its inhibition at 10 µM is under 25%.

From ChEMBL document CHEMBL3217743, “Reduction of acyl glucuronidation in a series of acidic 11-hydroxysteroid dehydrogenase type 1 (11-HSD1) inhibitors: the discovery of AZD6925” (Medchemcomm, 2012)
